# In PMC12699035, “Exploring market-approved azoles as potential breast cancer therapeutics targeting the VEGFR-2 biotarget” (Scientific Reports, 2025):
# Experiments:
# [1] = test system: Solid Ehrlich Carcinoma (SEC); experiment: In vivo anti-tumor activity in solid Ehrlich carcinoma (SEC)-bearing mice (tumor mass, volume, TIR%, hematology, histopathology)
# Method: All experimental protocols were approved by the Research Ethics Committee and Institutional Animal Care and Use Committee, Faculty of Science, Suez Canal University with the ethical code (SCU-Sci-REC439/2025), and all methods were carried out according to the European Union guidelines and in accordance with ARRIVE guidelines. All animals were anesthetized using a combination of Xylazine 10 mg/kg- Ketamine 100 mg/kg of body weight, respectively, prior sacrifice via cervical decapitation.
# In all graphs, treatments were administrated intraperitoneal (IP) with 6 mg/Kg B.Wt. for two weeks, day after day.
# (§1) SIT, FLU and TNZ were tested using the five dose sigmoidal curves to determine the IC50 values. They were tested for the VEGFR2 inhibition using VEGFR2 Kinase Inhibition Assay Kit Catalog # 40325 BPS Bioscience, San Diego, CA. […] At the end of these experiment, anti-tumor potentiality was recorded using tumor weight (mg), tumor volume (mm^3), and the tumor inhibition ratio (TIR%). Hematological parameters of Hemoglobin (Hb, g/dL), RBC’s count (10^6/μL), and WBC’s count (10^3/μL) were investigated, along with histopathological and immunohistochemical staining of the VEGR2 protein.
# Adult female Swiss albino mice purchased from Faculty of Pharmacy, Suez Canal University, Ismailia, Egypt, with an average body weight of (18-23) g was used. Mice were housed under constant conditions of 12 h light/dark cycle in a […], with free access to standard laboratory mice food and water. All procedures related to care and maintenance of the animals were performed according to the international guiding principles for animal research and approved by the Faculty of Pharmacy, Suez Canal University bioethics and animal ethics committee.
# Solid Ehrlich carcinoma (SEC) was got from the National Cancer Institute (Cairo University, Egypt). The tumor cell line proliferated in mice through serial intraperitoneal (I.P.) transplantation of a volume of 0.2 mL physiological saline containing 1×10^6 viable cells for 24 h. SEC cells were collected 7 days after I.P. implantation. The harvested cells were diluted with saline to obtain a concentration of 5×10^6 viable SEC cells/mL. A volume of 0.2 mL saline contains 1×10^6 SEC cells that were I.P. implanted into each normal mouse. SEC cells (1×10^6 tumor cells/mouse) were implanted subcutaneously into the right thigh of the hind limb.
# The experimental animals were randomly divided into four groups. Group 1 served as the normal saline control. Group 2 served as the SEC control (1×10^6 cells/mouse). Group 3 served as the ITR-treated group (6 mg/kg B.Wt., I.P.). […] Body weight and survival were recorded daily until the 24th day in both treated and control groups. At the end of the experiment, anesthetized animals were then sacrificed for evaluation of the antitumor activity and histopathological examination.
# It includes tumor volume, weight, and tumor inhibition ratio (TIR%). Time interval measurements of tumor volume using a digital Vernier caliper (Tricle Brand, Shanghai, China). Measure tumor length and width using a clipper and then calculate tumor volume using formulations V = (L x W x W)/2, where V is tumor volume, W is tumor width, L is tumor length. While TIR% was calculated according to the following equation Tumor volume Control-Tumor volume (treated)Tumor volume (control)x 100.
# Specimens of liver-sacrificed mice were fixed in 10% saline formalin. The fixed liver specimens were Dehydrated in ascending series of ethyl alcohol and embedded in paraffin.
# VEGFR-2 = molecular target: T1, VEGFR-2 (Homo sapiens, UniProt P35968); experiment: VEGFR-2 kinase inhibition, luminescent VEGFR2 (KDR) kinase assay kit (BPS Bioscience # 40325); format: biochemical
# T1 construct: purchased BPS Bioscience 40325
# T1 sequence (P35968 20-1356): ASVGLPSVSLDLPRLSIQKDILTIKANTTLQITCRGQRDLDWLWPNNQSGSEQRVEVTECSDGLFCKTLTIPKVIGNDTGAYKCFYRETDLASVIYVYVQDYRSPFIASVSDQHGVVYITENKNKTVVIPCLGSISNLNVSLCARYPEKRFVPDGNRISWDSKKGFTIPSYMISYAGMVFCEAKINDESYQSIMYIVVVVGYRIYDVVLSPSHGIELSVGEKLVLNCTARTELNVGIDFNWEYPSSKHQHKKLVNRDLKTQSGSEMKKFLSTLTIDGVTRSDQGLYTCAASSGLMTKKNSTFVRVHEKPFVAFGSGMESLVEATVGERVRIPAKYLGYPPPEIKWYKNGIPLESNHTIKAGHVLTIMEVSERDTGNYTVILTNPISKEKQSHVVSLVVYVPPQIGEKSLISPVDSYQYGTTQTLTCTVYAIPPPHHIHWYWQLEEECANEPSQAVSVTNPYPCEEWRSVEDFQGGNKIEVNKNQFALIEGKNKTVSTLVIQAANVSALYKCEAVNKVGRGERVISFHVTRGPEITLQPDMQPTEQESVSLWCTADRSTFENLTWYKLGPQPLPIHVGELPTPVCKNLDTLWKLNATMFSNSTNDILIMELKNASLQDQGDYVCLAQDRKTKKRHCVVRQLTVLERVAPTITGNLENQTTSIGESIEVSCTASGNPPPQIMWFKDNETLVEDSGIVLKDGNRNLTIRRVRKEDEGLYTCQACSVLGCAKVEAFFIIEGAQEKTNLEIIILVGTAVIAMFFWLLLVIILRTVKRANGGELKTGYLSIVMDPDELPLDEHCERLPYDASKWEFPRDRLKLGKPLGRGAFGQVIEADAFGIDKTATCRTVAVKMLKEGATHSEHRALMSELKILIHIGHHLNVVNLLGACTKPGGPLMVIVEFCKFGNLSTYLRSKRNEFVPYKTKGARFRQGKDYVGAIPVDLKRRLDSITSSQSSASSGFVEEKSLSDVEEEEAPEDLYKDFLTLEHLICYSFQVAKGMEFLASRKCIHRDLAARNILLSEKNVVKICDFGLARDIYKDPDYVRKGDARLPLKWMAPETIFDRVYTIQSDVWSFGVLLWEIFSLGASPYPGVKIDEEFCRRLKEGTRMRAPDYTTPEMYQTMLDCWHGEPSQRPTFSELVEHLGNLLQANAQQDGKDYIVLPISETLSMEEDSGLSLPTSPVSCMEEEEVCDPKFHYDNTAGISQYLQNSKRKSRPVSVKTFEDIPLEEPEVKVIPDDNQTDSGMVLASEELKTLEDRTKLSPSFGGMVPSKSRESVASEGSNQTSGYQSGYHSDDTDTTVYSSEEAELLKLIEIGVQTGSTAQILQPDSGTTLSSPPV
# Method: Functionally, this pathway operates in autocrine and intracrine modes to promote cell proliferation, survival, and resistance to apoptosis through downstream effectors such as PI3K/AKT and p38 MAPK.
# as §1, with “values.” for “values. They were tested for the VEGFR2 inhibition using VEGFR2 Kinase Inhibition Assay Kit Catalog # 40325 BPS Bioscience, San Diego, CA.”
# Compounds Itraconazole. […] [12].
structure (smiles),measurement,setting,value
"CCC(C)n1ncn(-c2ccc(N3CCN(c4ccc(OCC5COC(Cn6cncn6)(c6ccc(Cl)cc6Cl)O5)cc4)CC3)cc2)c1=O (stereo not drawn) [Itraconazole, itraconazole]",solid tumor mass,"[1]; 6 mg/Kg B.Wt. IP, two weeks, day after day, SEC control 469 mg",237 mg
same,tumor volume,"[1]; 6 mg/Kg B.Wt. IP, two weeks, day after day, SEC control 420 mm^3",221 mm^3
same,Tumor inhibition ratio (TIR%),"[1]; 6 mg/Kg B.Wt. IP, two weeks, day after day, TIR% = C − T/C × 100",47.4%
same,WBC's count,"[1]; 6 mg/Kg IP, normal 5, SEC control 9.2",6.7 10^3/µL
same,RBC's count,"[1]; 6 mg/Kg IP, normal 6.9, SEC control 3.1",5.1 10^6/µL
same,Hemoglobin level,"[1]; 6 mg/Kg IP, normal 11.6, SEC control 4.6",6.8 g/dL
same,Tumor cell density (histopathology of SEC mass),"[1]; isolated tumor mass, SEC control 2.2 cm^2",1.2 cm^2
same,VEGFR-2 enzyme inhibition LogIC50 (Fig. 3),"VEGFR-2; dose-response curve fit, unit not given",1.515
same,IC50,"VEGFR-2; enzyme inhibition, dose-response, non-linear regression, read-out: VEGFR-2 inhibition IC50",32.7 µM
